From US20070123546A1, “2-amino-7,8-dihydro-6H-pyrido[4,3-d]pyrimidin-5-ones” (Chiron Corporation, priority 2005, published 2007)

Target: His-tagged N-terminal ATP binding domain (amino acid residues 9-236) of HSP90α (Homo sapiens, UniProt P07900)
Experiment: HSP90 inhibitor binding potency: TRF competition binding assay
Details: Table 3; competition with biotinylated radicicol
How it was run: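 Competition against biotinylated radicicol for binding to the His-tagged 9-236 ATP domain of HSP90α: 2 h, room temperature, HEPES/MgCl2/KCl/BSA buffer. Streptavidin capture, then europium-labeled anti-His antibody and enhancement solution; europium counts give IC50.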

Compound	IC50
Cc1nc(N)nc2c1C(=O)NC(c1ccc(F)cc1-c1ccccc1C(F)(F)F)C2 (centres unmarked) [Compound 89, 2-Amino-7-(5-fluoro-2′-trifluoromethyl-biphenyl-2-yl)-4-methyl-7,8-dihydro-6H-pyrido[4,3-d]pyrimidin-5-one]	< 10 µM
Cc1nc(N)nc2c1C(=O)NC(c1ccc(F)cc1-c1ccncc1)C2 (centres unmarked) [Compound 90, 2-Amino-7-(4-fluoro-2-pyridin-4-yl-phenyl)-4-methyl-7,8-dihydro-6H-pyrido[4,3-d]pyrimidin-5-one]	> 10 µM
COc1ccc(-c2cc(F)ccc2C2Cc3nc(N)nc(C)c3C(=O)N2)cc1F (centres unmarked) [Compound 91, 2-Amino-7-(5,3′-difluoro-4′-methoxy-biphenyl-2-yl)-4-methyl-7,8-dihydro-6H-pyrido[4,3-d]pyrimidin-5-one]	> 10 µM
Cc1nc(N)nc2c1C(=O)NC(c1ccccc1)C2 (centres unmarked) [Compound 92, 2-Amino-4-methyl-7-phenyl-7,8-dihydro-6H-pyrido[4,3-d]pyrimidin-5-one]	> 10 µM
COc1cncc(-c2cc(F)ccc2C2Cc3nc(N)nc(C)c3C(=O)N2CCN)n1 (centres unmarked) [Compound 93, 2-Amino-6-(2-amino-ethyl)-7-[4-fluoro-2-(6-methoxy-pyrazin-2-yl)-phenyl]-4-methyl-7,8-dihydro-6H-pyrido[4,3-d]pyrimidin-5-one]	< 10 µM
COc1nc(-c2cc(F)ccc2[C@H]2Cc3nc(N)nc(C)c3C(=O)N2)cs1 [Compound 95, (R)-2-Amino-7-[4-fluoro-2-(2-methoxy-thiazol-4-yl)-phenyl]-4-methyl-7,8-dihydro-6H-pyrido[4,3-d]pyrimidin-5-one]	< 10 µM
COc1cccc(-c2cc(F)ccc2[C@H]2Cc3nc(N)ncc3C(=O)N2)n1 [Compound 96, (R)-2-Amino-7-[4-fluoro-2-(6-methoxy-pyridin-2-yl)-phenyl]-7,8-dihydro-6H-pyrido[4,3-d]pyrimidin-5-one]	< 10 µM
COc1nc(-c2cc(F)ccc2[C@H]2Cc3nc(N)ncc3C(=O)N2)cnc1N [Compound 97, (R)-2-Amino-7-[2-(5-amino-6-methoxy-pyrazin-2-yl)-4-fluoro-ohenyl]-7,8-dihydro-6H-pyrido[4,3-d]pyrimidin-5-one]	< 10 µM
Nc1ncc2c(n1)C[C@H](c1ccc(F)cc1)NC2=O [Compound 98, (R)-2-Amino-7-(4-fluoro-phenyl)-7,8-dihydro-6H-pyrido[4,3-d]pyrimidin-5-one]	< 10 µM
COc1nc(-c2cc(F)ccc2C2Cc3nc(N)nc(C)c3C(=O)N2)cnc1N (centres unmarked) [Compound 99, 2-Amino-7-[2-(5-amino-6-methoxy-pyrazin-2-yl)-4-fluoro-phenyl]-4-methyl-7,8-dihydro-6H-pyrido[4,3-d]pyrimidin-5-one]	< 10 µM
COc1nc(-c2cc(F)ccc2[C@@H]2Cc3nc(N)nc(C)c3C(=O)N2)cnc1N [Compound 100, (S)-2-Amino-7-[2-(5-amino-6-methoxy-pyrazin-2-yl)-4-fluoro-phenyl]-4-methyl-7,8-dihydro-6H-pyrido[4,3-d]pyrimidin-5-one]	> 10 µM
COc1nc(-c2cc(F)ccc2[C@H]2Cc3nc(N)nc(C)c3C(=O)N2)cnc1N [Compound 101, (R)-2-Amino-7-[2-(5-amino-6-methoxy-pyrazin-2-yl)-4-fluoro-phenyl]-4-methyl-7,8-dihydro-6H-pyrido[4,3-d]pyrimidin-5-one]	< 10 µM
Cc1nc(N)nc2c1C(=O)N[C@@H](c1ccc(F)cc1)C2 [Compound 102, (R)-2-Amino-7-(4-fluoro-phenyl)-4-methyl-7,8-dihydro-6H-pyrido[4,3-d]pyrimidin-5-one]	< 10 µM
Cc1nc(N)nc2c1C(=O)N[C@@H](c1ccccc1)C2 [Compound 103, (R)-2-Amino-4-methyl-7-phenyl-7,8-dihydro-6H-pyrido[4,3-d]pyrimidin-5-one]	< 10 µM
COc1nc(-c2ccccc2[C@H]2Cc3nc(N)nc(C)c3C(=O)N2)cnc1N [Compound 104, (R)-2-Amino-7-[2-(5-amino-6-methoxy-pyrazin-2-yl)-phenyl]-4-methyl-7,8-dihydro-6H-pyrido[4,3-d]pyrimidin-5-one]	< 10 µM
C=CCN1C(=O)c2c(C)nc(N)nc2C[C@@H]1c1ccc(F)cc1-c1cnc(N)c(OC)n1 [Compound 105, (R)-6-Allyl-2-amino-7-[2-(5-amino-6-methoxy-pyrazin-2-yl)-4-fluoro-phenyl]-4-methyl-7,8-dihydro-6H-pyndo[4,3-d]pyrimidin-5-one]	< 10 µM

Compound	IC50
CCN1C(=O)c2c(C)nc(N)nc2C[C@@H]1c1ccc(F)cc1-c1cccc(OC)n1 [Compound 106, (R)-2-Amino-6-ethyl-7-[4-fluoro-2-(6-methoxy-pyridin-2-yl)-phenyl]-4-methyl-7,8-dihydro-6H-pyrido[4,3-d]pyrimidin-5-one]	< 10 µM
CCN1C(=O)c2c(C)nc(N)nc2C[C@@H]1c1ccc(F)cc1-c1cccnc1OC [Compound 107, (R)-2-Amino-6-ethyl-7-[4-fluoro-2-(2-methoxy-pyridin-3-yl)-phenyl]-4-methyl-7,8-dihydro-6H-pyrido[4,3-d]pyrimidin-5-one]	< 10 µM
CCN1C(=O)c2c(C)nc(N)nc2C[C@@H]1c1ccc(F)cc1-c1cncc(OC)n1 [Compound 108, (R)-2-Amino-6-ethyl-7-[4-fluoro-2-(6-methoxy-pyrazin-2-yl)-phenyl]-4-methyl-7,8-dihydrp-6H-pyrido[4,3-d]pyrimidin-5-one]	< 10 µM
CCN1C(=O)c2c(C)nc(N)nc2C[C@@H]1c1ccc(F)cc1-c1cccnc1 [Compound 110, (R)-2-Amino-6-ethyl-7-(4-fluoro-2-pyridin-3-yl-phenyl)-4-methyl-7,8-dihydro-6H-pyrido[4,3-d]pyrimidin-5-one]	< 10 µM
CCN1C(=O)c2c(C)nc(N)nc2C[C@@H]1c1ccc(F)cc1-c1cnc(OC)nc1OC [Compound 111, (R)-2-Amino-7-[2-(2,4-dimethoxy-pyrimidin-5-yl)-4-fluoro-phenyl]-6-ethyl-4-methyl-7,8-dihydro-6H-pyrido[4,3-d]pyrimidin-5-one]	> 10 µM
Cc1nc(N)nc2c1C(=O)N(Cc1ccccc1)[C@@H](c1ccc(F)cc1-c1ncc(Cl)c(O)n1)C2 [Compound 112, (R)-2-Amino-6-benzyl-7-[2-(5-chloro-4-hydroxy-pyrimidin-2-yl)-4-fluoro-phenyl]-4-methyl-7,8-dihydro-6H-pyrido[4,3-d]pyrimidin-5-one]	> 10 µM
COc1cncc(-c2cc(F)ccc2[C@H]2Cc3nc(N)nc(C)c3C(=O)N2CCO)n1 [Compound 113, (R)-2-Amino-7-[4-fluoro-2-(6-methoxy-pyrazin-2-yl)-phenyl]-6-(2-hydroxy-ethyl)-4-methyl-7,8-dihydro-6H-pyrido[4,3-d]pyrimidin-5-one]	< 10 µM
COc1ccc(CN2C(=O)c3c(C)nc(N)nc3C[C@@H]2c2ccc(F)cc2Br)c(OC)c1 [Compound 114, (R)-2-Amino-7-(2-bromo-4-fluoro-phenyl)-6-(2,4-dimethoxy-benzyl)-4-methyl-7,8-dihydro-6H-pyrido[4,3-d]pyrimidin-5-one]	> 10 µM
COc1cncc(-c2cc(F)ccc2[C@H]2Cc3nc(N)nc(C)c3C(=O)N2Cc2cccc(Cl)c2)n1 [Compound 115, (R)-2-Amino-6-(3-chloro-benzyl)-7-[4-fluoro-2-(6-methoxy-pyrazin-2-yl)-phenyl]-4-methyl-7,8-dihydro-6H-pyrido[4,3-d]pyrimidin-5-one]	< 10 µM
COc1cccc(-c2cc(F)ccc2[C@H]2Cc3nc(N)nc(C)c3C(=O)N2Cc2cccc(Cl)c2)n1 [Compound 116, (R)-2-Amino-6-(3-chloro-benzyl)-7-[4-fluoro-2-(6-methoxy-pyridin-2-yl)-phenyl]-5-methyl-7,8-dihydro-6H-pyrido[4,3-d]pyrimidin-5-one]	< 10 µM
COc1ncc(-c2cc(F)ccc2[C@H]2Cc3nc(N)nc(C)c3C(=O)N2Cc2cccc(Cl)c2)nc1OC [Compound 117, (R)-2-Amino-6-(3-chloro-benzyl)-7-[2-(5,6-dimethoxy-pyrazin-2-yl)-4-fluoro-phenyl]-4-methyl-7,8-dihydro-6H-pyrido[4,3-d]pyrimidin-5-one]	< 10 µM
COc1ccc(CN2C(=O)c3c(C)nc(N)nc3C[C@@H]2c2ccc(F)cc2-c2cncc(OC)n2)c(OC)c1 [Compound 118, (R)-2-Amino-6-(2,4-dimethoxy-benzyl)-7-[4-fluoro-2-(6-methoxy-pyrazin-2-yl)-phenyl]-4-methyl-7,8-dihydro-6H-pyrido[4,3-d]pyrimidin-5-one]	< 10 µM
COc1ccc(CN2C(=O)c3c(C)nc(N)nc3C[C@@H]2c2ccc(F)cc2-c2cccc(OC)n2)c(OC)c1 [Compound 119, (R)-2-Amino-6-(2,4-dimethoxy-benzyl)-7-[4-fluoro-2-(6-methoxy-pyridin-2-yl)-phenyl]-4-methyl-7,8-dihydro-6H-pyrido[4,3-d]pyrimidin-5-one]	< 10 µM
COc1cccc(-c2cc(F)ccc2[C@H]2Cc3nc(N)nc(C)c3C(=O)N2Cc2ccncc2)n1 [Compound 120, (R)-2-Amino-7-[4-fluoro-2-(6-methoxy-pyridin-2-yl)-phenyl]-4-methyl-6-pyridin-4-ylmethyl-7,8-dihydro-6H-pyrido[4,3-d]pyrimidin-5-one]	< 10 µM
COc1cncc(-c2cc(F)ccc2[C@H]2Cc3nc(N)nc(C)c3C(=O)N2Cc2ccncc2)n1 [Compound 121, (R)-2-Amino-7-[4-fluoro-2-(6-methoxy-pyrazin-2-yl)-phenyl]-4-methyl-6-pyridin-4-ylmethyl-7,8-dihydro-6H-pyrido[4,3-d]pyrimidin-5-one]	< 10 µM
COc1nc(-c2cc(F)ccc2[C@H]2Cc3nc(N)nc(C)c3C(=O)N2Cc2ccncc2)cnc1N [Compound 122, (R)-2-Amino-7-[2-(5-amino-6-methoxy-pyrazin-2-yl)-4-fluoro-phenyl]-4-methyl-6-pyridin-4-ylmethyl-7,8-dihydro-6H-pyrido[4,3-d]pyrimidin-5-one]	< 10 µM
